From PubChem BioAssay (NCI)
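Assay format: 96-well plates, 48-hour exposure. GI50: concentration for 50% inhibition of growth. At the TGI there is no net growth.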

Key:
Experiment in all cases: NCI-60 cell line screen, 48 h
786-0 renal = tested on: 786-0 renal
A498 renal = tested on: A498 renal
A549 NSCLC = tested on: A549 NSCLC
ACHN renal = tested on: ACHN renal
BT-549 breast = tested on: BT-549 breast
CAKI-1 renal = tested on: CAKI-1 renal
CCRF-CEM leukemia = tested on: CCRF-CEM leukemia
COLO 205 colon = tested on: COLO 205 colon
DU-145 prostate = tested on: DU-145 prostate
EKVX NSCLC = tested on: EKVX NSCLC
HCC-2998 colon = tested on: HCC-2998 colon
HCT-116 colon = tested on: HCT-116 colon
HCT-15 colon = tested on: HCT-15 colon
HL-60(TB) leukemia = tested on: HL-60(TB) leukemia
HOP-62 NSCLC = tested on: HOP-62 NSCLC
HOP-92 NSCLC = tested on: HOP-92 NSCLC
HS 578T breast = tested on: HS 578T breast
HT29 colon = tested on: HT29 colon
IGROV1 ovarian = tested on: IGROV1 ovarian
K-562 leukemia = tested on: K-562 leukemia
KM12 colon = tested on: KM12 colon
LOX IMVI melanoma = tested on: LOX IMVI melanoma
M14 melanoma = tested on: M14 melanoma
MALME-3M melanoma = tested on: MALME-3M melanoma
MCF7 breast = tested on: MCF7 breast
MDA-MB-231 breast = tested on: MDA-MB-231 breast
MDA-MB-435 = tested on: MDA-MB-435
MOLT-4 leukemia = tested on: MOLT-4 leukemia
NCI-H226 lung = tested on: NCI-H226 lung
NCI-H23 lung = tested on: NCI-H23 lung
NCI-H460 lung = tested on: NCI-H460 lung
NCI-H522 lung = tested on: NCI-H522 lung
NCI/ADR-RES ovarian = tested on: NCI/ADR-RES ovarian
OVCAR-3 ovarian = tested on: OVCAR-3 ovarian
OVCAR-4 ovarian = tested on: OVCAR-4 ovarian
OVCAR-5 ovarian = tested on: OVCAR-5 ovarian
OVCAR-8 ovarian = tested on: OVCAR-8 ovarian
PC-3 prostate = tested on: PC-3 prostate
RPMI-8226 leukemia = tested on: RPMI-8226 leukemia
RXF 393 renal = tested on: RXF 393 renal
SF-268 CNS = tested on: SF-268 CNS
SF-295 CNS = tested on: SF-295 CNS
SF-539 CNS = tested on: SF-539 CNS
SK-MEL-2 melanoma = tested on: SK-MEL-2 melanoma
SK-MEL-28 melanoma = tested on: SK-MEL-28 melanoma
SK-MEL-5 melanoma = tested on: SK-MEL-5 melanoma
SK-OV-3 ovarian = tested on: SK-OV-3 ovarian
SN12C renal = tested on: SN12C renal
SNB-19 CNS = tested on: SNB-19 CNS
SNB-75 CNS = tested on: SNB-75 CNS
SR leukemia = tested on: SR leukemia
SW-620 colon = tested on: SW-620 colon
T-47D breast = tested on: T-47D breast
TK-10 renal = tested on: TK-10 renal
U251 CNS = tested on: U251 CNS
UACC-257 melanoma = tested on: UACC-257 melanoma
UACC-62 melanoma = tested on: UACC-62 melanoma
UO-31 renal = tested on: UO-31 renal

Work on O=C(Nc1ncc(Cc2ccccc2)s1)c1sc2ccccc2c1Cl yielded a GI50 (786-0 renal) of 1.32 µM, a TGI (786-0 renal) of 40.1 µM and a GI50 (A498 renal) of 0.286 µM. For the same molecule, the TGI (A498 renal) was 5.59 µM, the GI50 (A549 NSCLC) was 0.853 µM and the TGI (A549 NSCLC) was greater than 50.4 µM. The GI50 (ACHN renal) was 0.496 µM, the TGI (ACHN renal) was 48.6 µM and the GI50 (BT-549 breast) was 2.21 µM. It also gave a TGI (BT-549 breast) of 40 µM, a GI50 (CAKI-1 renal) of 0.574 µM and a TGI (CAKI-1 renal) of 24.5 µM. The GI50 (CCRF-CEM leukemia) was 0.593 µM, the TGI (CCRF-CEM leukemia) was greater than 100 µM and the GI50 (COLO 205 colon) was 2.16 µM. The TGI (COLO 205 colon) was greater than 100 µM, the GI50 (DU-145 prostate) was 2.8 µM and the TGI (DU-145 prostate) was 36.5 µM. It also gave a GI50 (EKVX NSCLC) of 0.969 µM, a TGI (EKVX NSCLC) greater than 100 µM and a GI50 (HCC-2998 colon) of 0.552 µM. The TGI (HCC-2998 colon) was 12.3 µM, the GI50 (HCT-116 colon) was 0.469 µM and the TGI (HCT-116 colon) was greater than 76.6 µM. The GI50 (HCT-15 colon) was 0.0449 µM, the TGI (HCT-15 colon) was greater than 100 µM and the GI50 (HL-60(TB) leukemia) was 0.375 µM. The TGI (HL-60(TB) leukemia) was greater than 100 µM, the GI50 (HOP-62 NSCLC) was 1.23 µM and the TGI (HOP-62 NSCLC) was greater than 62.4 µM. It also gave a GI50 (HOP-92 NSCLC) of 1.23 µM, a TGI (HOP-92 NSCLC) of 45.3 µM and a GI50 (HS 578T breast) of 0.537 µM. The TGI (HS 578T breast) was 29.9 µM, the GI50 (HT29 colon) was 0.449 µM and the TGI (HT29 colon) was greater than 63.1 µM. For the same molecule, the GI50 (IGROV1 ovarian) was 0.903 µM, the TGI (IGROV1 ovarian) was 61.5 µM and the GI50 (K-562 leukemia) was 0.434 µM. For the same molecule, the TGI (K-562 leukemia) was greater than 100 µM, the GI50 (KM12 colon) was 0.0684 µM and the TGI (KM12 colon) was 29 µM. The GI50 (LOX IMVI melanoma) was 1.07 µM, the TGI (LOX IMVI melanoma) was greater than 61.8 µM and the GI50 (M14 melanoma) was 0.448 µM. It also gave a TGI (M14 melanoma) of 32.2 µM, a GI50 (MALME-3M melanoma) of 0.809 µM and a TGI (MALME-3M melanoma) of 24.3 µM. The GI50 (MCF7 breast) was 0.037 µM, the TGI (MCF7 breast) was greater than 100 µM and the GI50 (MDA-MB-231 breast) was 1.21 µM. For the same molecule, the TGI (MDA-MB-231 breast) was 19.3 µM, the GI50 (MDA-MB-435) was 0.25 µM and the TGI (MDA-MB-435) was 0.805 µM. It also gave a GI50 (MOLT-4 leukemia) of 0.68 µM, a TGI (MOLT-4 leukemia) greater than 100 µM and a GI50 (NCI-H226 lung) of 2.2 µM. It also gave a TGI (NCI-H226 lung) greater than 46.6 µM, a GI50 (NCI-H23 lung) of 2.25 µM and a TGI (NCI-H23 lung) greater than 61.6 µM. It also gave a GI50 (NCI-H460 lung) of 0.253 µM, a TGI (NCI-H460 lung) of 18.4 µM and a GI50 (NCI-H522 lung) of 0.739 µM. For the same molecule, the TGI (NCI-H522 lung) was 15.8 µM, the GI50 (NCI/ADR-RES ovarian) was 0.573 µM and the TGI (NCI/ADR-RES ovarian) was 35.1 µM. The GI50 (OVCAR-3 ovarian) was 0.523 µM, the TGI (OVCAR-3 ovarian) was 14.4 µM and the GI50 (OVCAR-4 ovarian) was 3.32 µM. The TGI (OVCAR-4 ovarian) was 79.4 µM, the GI50 (OVCAR-5 ovarian) was 2.21 µM and the TGI (OVCAR-5 ovarian) was 64.2 µM. It also gave a GI50 (OVCAR-8 ovarian) of 2.54 µM, a TGI (OVCAR-8 ovarian) greater than 100 µM and a GI50 (PC-3 prostate) of 0.948 µM. The TGI (PC-3 prostate) was greater than 60.4 µM, the GI50 (RPMI-8226 leukemia) was 1.33 µM and the TGI (RPMI-8226 leukemia) was greater than 100 µM. The GI50 (RXF 393 renal) was 0.665 µM, the TGI (RXF 393 renal) was 10.6 µM and the GI50 (SF-268 CNS) was 1.37 µM. The TGI (SF-268 CNS) was greater than 100 µM, the GI50 (SF-295 CNS) was 0.753 µM and the TGI (SF-295 CNS) was 19.6 µM. For the same molecule, the GI50 (SF-539 CNS) was 0.497 µM, the TGI (SF-539 CNS) was 5.23 µM and the GI50 (SK-MEL-2 melanoma) was 0.534 µM. The TGI (SK-MEL-2 melanoma) was greater than 64.4 µM, the GI50 (SK-MEL-28 melanoma) was 2.18 µM and the TGI (SK-MEL-28 melanoma) was greater than 80.4 µM. The GI50 (SK-MEL-5 melanoma) was 0.0634 µM, the TGI (SK-MEL-5 melanoma) was 0.691 µM and the GI50 (SK-OV-3 ovarian) was 2.77 µM. It also gave a TGI (SK-OV-3 ovarian) of 93.7 µM, a GI50 (SN12C renal) of 1.24 µM and a TGI (SN12C renal) greater than 100 µM. The GI50 (SNB-19 CNS) was 0.777 µM, the TGI (SNB-19 CNS) was 59.9 µM and the GI50 (SNB-75 CNS) was 0.368 µM. For the same molecule, the TGI (SNB-75 CNS) was 12.9 µM, the GI50 (SR leukemia) was 0.522 µM and the TGI (SR leukemia) was greater than 100 µM. For the same molecule, the GI50 (SW-620 colon) was 0.476 µM, the TGI (SW-620 colon) was greater than 100 µM and the GI50 (T-47D breast) was 0.0713 µM. The TGI (T-47D breast) was greater than 100 µM, the GI50 (TK-10 renal) was 4.01 µM and the TGI (TK-10 renal) was 69.1 µM. It also gave a GI50 (U251 CNS) of 0.593 µM, a TGI (U251 CNS) of 26 µM and a GI50 (UACC-257 melanoma) of 1.93 µM. It also gave a TGI (UACC-257 melanoma) greater than 66.5 µM, a GI50 (UACC-62 melanoma) of 0.147 µM and a TGI (UACC-62 melanoma) of 17.8 µM. For the same molecule, the GI50 (UO-31 renal) was 1.41 µM and the TGI (UO-31 renal) was greater than 82.3 µM.
